In one data set the target is T1, RORγ (Homo sapiens, UniProt P51449).
T1 construct: expressed in transfected cells; host or cells: HEK 293 cells, transiently cotransfected with pGL4.3 luc2P/GAL4UAS/Hygro reporter
T1 sequence (P51449 269-508 limits assumed): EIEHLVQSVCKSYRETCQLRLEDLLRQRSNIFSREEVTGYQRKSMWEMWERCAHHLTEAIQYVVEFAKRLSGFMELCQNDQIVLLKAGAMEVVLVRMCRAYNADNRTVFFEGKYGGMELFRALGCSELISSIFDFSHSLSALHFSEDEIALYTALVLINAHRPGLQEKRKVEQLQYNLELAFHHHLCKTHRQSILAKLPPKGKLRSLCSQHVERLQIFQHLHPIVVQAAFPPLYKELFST
The experiment in a line: RORγ Reporter Gene Assay (RGA), luciferase transactivation in transiently transfected HEK 293 cells. The data set is classed as cell-based. The following applies: HEK 293 cells cotransfected with pGL4.3 luc2P/GAL4UAS and pBIND Gal4DBD hRORC LBD; 20-24 h incubation. As for the experimental part:
Reporter Gene Assay (RGA)
A nuclear receptor transactivation assay is performed to quantitate the ability of test compounds to inhibit RORγ transactivation of a luciferase reporter. A similar assay is described in: Khan et al., Bioorganic & Medicinal Chemistry Letters 23 (2013), 532-536. The system uses transiently transfected HEK 293 cells cotransfected with two plasmids (pGL4.3, luc2P/GAL4UAS/Hygro, and pBIND, Gal4DBD hRORC LBD1-3). The positive control is co-transiently transfected with both plasmids, and the negative control contains the pGL4.3 promoter sequence. Assays are assembled in 384 well plates where transiently transfected cells and test compound at varying concentrations are incubated for 20-24 h. The next day, assays plates are taken out and equilibrated at RT for 20-30 minutes. Bright-Glo™ Luciferase Assay System is used to detect Luciferase production. After addition of Bright GLO detection reagent, the plates are incubated at RT for 20 minutes. The plates are read on an Envision plate reader to measure luminescence signal. The RLU signal is converted to POC relative to control and blank wells.
Compound Dilution Buffer:
Bright Glo Luciferase Assay System: Promega #E2620
Thaw lysis buffer provided in kit, add 100 mL lysis buffer to substrate powder.

Data set [1] in a line: Human liver microsome (HLM) metabolic stability assay. The following applies: human liver microsomes, 1 uM compound, 37° C., 60 min; % hepatic blood flow. The data set is classed as in vitro ADME. As for the experimental part: Assessment of Metabolic Stability
The 5 time point, high-throughput human liver microsome (HLM) metabolic stability assay is designed to determine in vitro compound metabolism. Compounds are incubated with HLMs at a concentration of 1 uM, at 37° C., for a total of 60 min. The percent of compound remaining at 5, 15, 30, and 60 min is used to calculate the t1/2 (min), CLint (mL/min/kg), CLh (mL/min/kg), and % Qh. The assay is based on a 96-well format and can accommodate up to 92 compounds per plate (n=1).
Using the 96-well multi-channel head, the Biomek FX, equipped with a Peltier heating block/shaker, is programmed to accomplish the following steps: • 1. Pipette 175 uL of 1.15 mg/mL microsomes into each of the 96 conical inserts (Analytical Sales and Products, catalog number 96PL05) that fit into the plate of the Peltier heating block/shaker (the incubation plate) • 2. Add 5 uL of compounds from the assay plate to the microsomes and shake the mixture at 600 rpm at 42.1° C. for 10 min (a setting of 42.1° C. on the Peltier is required for the samples to incubate at 37° C.) • 3. After 10 min, prompt the user to add the NADPH plate to the deck and add 20 uL from the NADPH plate to the incubation plate to start the reaction • 4. Add 215 uL of 100%, cold acetonitrile containing an internal standard(s) to a 0 minute, 5 minute, 15 minute, 30 minute, and 60 minute “quench” plate • 5. At 0 min, 5 min, 15 min, 30 min, and 60 min into the incubation, aspirate 12 uL from the incubation mixture and add it to the quench solution to stop the reaction • 6. Add 185 uL HPLC grade water to each well of the 0, 5, 15, 30 and 60 minute quench plates to dilute compounds to the appropriate concentration for the mass spectrometer
After all time points are collected, the quench plates are sealed with 96-well pierceable plate mats or heat sealing foil and centrifuged at 3000 rpm for 15 min to pellet the microsomes.
The plates are analyzed using LC/MS/MS with electron spray ionization (ESI) and the previously determined MRM transitions. The LC method includes the following parameters:
Using an Excel template in Activitybase, the peak areas corresponding to 5, 15, 30 and 60 min are compared to the peak area at 0 min to calculate the percent of remaining compound using the following equation:
Percent compound remaining=(AUC at Time t min/AUC at Time 0 min)×100 where t=0, 5, 15, 30 or 60 min.
Time (min) is plotted against the natural logarithm (Ln) of the percent compound remaining to determine the slope. The slope is used to calculate t1/2 (min) using the equation, t1/2=0.693/slope.
Clint, Intrinsic Clearance

The values that follow come from patent US10450314B2, “Pteridine derivatives as modulators of ROR gamma” (Boehringer Ingelheim International GmbH, priority 2015, dated 2019).

`Cc1ncnc(C2CC2)c1-c1nc(C)c2nc(NCc3ccc(S(C)(=O)=O)nc3)c(=O)n([C@@H](C)C(F)(F)F)c2n1` [Example 20] came in with an IC50 against RORγ of 0.175 µM. The “HLM (% Qh)” value in data set [1] came to 29 % Qh.
On the same counts, the results for `COc1ncnc(C2CC2)c1-c1nc(C)c2nc(NCc3ccc(S(N)(=O)=O)cn3)c(=O)n([C@@H](C)C(F)(F)F)c2n1` [Example 95] are 0.15 µM and 40 % Qh.
As for `CC[C@@H](C)n1c(=O)c(NCc2ccc(S(=N)(=O)CC)cc2)nc2c(C)nc(-c3c(C)ncnc3C3CC3)nc21` (single isomer, unassigned) [Example 26b], 0.17 µM corresponded to half-maximal inhibition at RORγ (IC50). Further, the “HLM (% Qh)” value in data set [1] is given as 25 % Qh.
Take `CC[C@H](C)n1c(=O)c(NCc2ccc(S(=O)(=O)CC)nc2)nc2c(C)nc(-c3c(OC)ncnc3C3CC3)nc21` [Example 63]: inhibition against RORγ was half-maximal at 0.1 µM (IC50). In addition, the “HLM (% Qh)” value in data set [1] is under 24 % Qh.
`CC[C@@H](C)n1c(=O)c(NCc2ccc(S(=N)(=O)CC)cc2)nc2c(C)nc(-c3c(OC)ncnc3C3CC3)nc21` (single isomer, unassigned) [Example 29a] returned an IC50 against RORγ of 0.235 µM. In addition, in data set [1], the “HLM (% Qh)” value was 73 % Qh.
Turning to `CCS(=O)(=O)c1ccc(CNc2nc3c(C)nc(-c4c(OC)ncnc4C4CC4)nc3n(CC(C)C)c2=O)nc1` [Example 80], half-maximal inhibition against RORγ (IC50) was put at 0.255 µM. Moreover, the “HLM (% Qh)” value in data set [1] is given as under 24 % Qh.
On to `Cc1ncnc(C2CC2)c1-c1nc(C)c2nc(NCc3cnc(S(C)(=O)=O)cn3)c(=O)n([C@@H](C)C(F)(F)F)c2n1` [Example 37], for which inhibition on RORγ was half-maximal at 0.455 µM (IC50). In data set [1], the “HLM (% Qh)” value was under 24 % Qh.
Compound `CC[C@H](C)n1c(=O)c(NCc2ccc(S(=O)(=O)CC)cn2)nc2c(C)nc(-c3c(OC)ncnc3C3CC3)nc21` [Example 58] gave an IC50 against RORγ of 0.071 µM. Further, in data set [1], the “HLM (% Qh)” value is under 24 % Qh.
As to `CCS(=O)(=O)c1cnc(CNc2nc3c(C)nc(-c4c(C)ncnc4C4CC4)nc3n(C(C)C(F)F)c2=O)nc1` (centres unmarked) [Example 89], the IC50 against RORγ stood at 0.225 µM. For the same compound, in data set [1], the “HLM (% Qh)” value is under 24 % Qh.
Take `Cc1ncnc(C2CC2)c1-c1nc(C)c2nc(NCc3ccc(S(N)(=O)=O)nc3)c(=O)n([C@@H](C)C(F)(F)F)c2n1` [Example 98]: the IC50 against RORγ was 1.1 µM. Besides, the “HLM (% Qh)” value in data set [1] was under 24 % Qh.
`CCS(=O)(=O)c1ccc(CNc2nc3c(C)nc(-c4c(C)ncnc4C4CC4)nc3n([C@@H](C)CF)c2=O)nc1` [Example 48] returned an IC50 against RORγ of 1.2 µM. Moreover, in data set [1], the “HLM (% Qh)” value is reported as under 24 % Qh.
`CCS(=O)(=O)c1ccc(CNc2nc3c(C)nc(-c4c(C)ncnc4C4CC4)nc3n([C@@H](C)C(F)(F)F)c2=O)nc1` [Example 79] registered an IC50 on RORγ of 0.13 µM. For the same compound, in data set [1], the “HLM (% Qh)” value is on record as under 24 % Qh.
The matching figures for `CC[C@H](C)n1c(=O)c(NCc2ccc(S(C)(=N)=O)cc2)nc2c(C)nc(-c3c(C)ncnc3C3CC3)nc21` (some centres unmarked) [Example 84]: 0.195 µM and 33 % Qh.
Consider `COc1ncnc(C2CC2)c1-c1nc(C)c2nc(NCc3ccc(S(C)(=O)=O)nc3)c(=O)n([C@@H](C)C3CC3)c2n1` [Example 8], for which the IC50 against RORγ turned out to be 0.075 µM. Moreover, the “HLM (% Qh)” value in data set [1] is under 24 % Qh.
Turning to `CCS(=O)(=O)c1ccc(CNc2nc3c(C)nc(-c4c(OC)ncnc4C4CC4)nc3n([C@@H](C)C(F)(F)F)c2=O)nc1` [Example 88], at RORγ, inhibition was half-maximal at 0.102 µM (IC50). Moreover, in data set [1], the “HLM (% Qh)” value turned out to be 38 % Qh.
As to `COc1ncnc(C2CC2)c1-c1nc(C)c2nc(NCc3ccc(S(C)(=N)=O)cn3)c(=O)n([C@@H](C)C(F)(F)F)c2n1` (single isomer, unassigned) [Example 105b], the IC50 against RORγ was 0.51 µM. The “HLM (% Qh)” value in data set [1] is 27 % Qh.
For the compound `CC[C@@H](C)n1c(=O)c(NCc2ccc(S(=O)(=O)CC)cn2)nc2c(COC(C)=O)nc(-c3c(C)ncnc3C3CC3)nc21` [Example 46], inhibition on RORγ was half-maximal at 1.05 µM (IC50). Further, the “HLM (% Qh)” value in data set [1] amounted to 66 % Qh.
For `CCS(=O)(=O)c1ccc(CNc2nc3c(C)nc(-c4c(C)ncnc4C4CC4)nc3n([C@@H](C)C3CC3)c2=O)nc1` [Example 68], in data set [1], the “HLM (% Qh)” value is reported as under 24 % Qh.
